Where only a bound is given, the exact number is not on record here.

The subject of one data set is Influenza A virus. As to the kind of experiment: In vitro antiinfluenza activity against influenza virus A strain. Type of data set: functional, organism-based.
For a further data set, the system named is Influenza B virus. As to the kind of experiment: In vitro antiinfluenza activity against influenza virus B strain. It is filed as functional, organism-based.
The nature of data set [1]: Lethal dose against mice upon oral administration. It is filed as toxicity. The note with it: mouse, in vivo.
Data set [2] can be described thus: Lethal dose against mice upon intraperitoneal administration. Type of data set: toxicity. The note with it: mouse, in vivo, ip.

The compound `Cc1nc(NCCc2cccc(N3CCCC3)c2)c2cc[nH]c2n1` returned an IC50 in the data set on Influenza A virus of 23.9 µM.

For `Cc1nc(NCc2cccc(N3CCCC3)c2)c2cc[nH]c2n1`, the IC50 worked out at 6.4 µM in the data set on Influenza B virus and 4.8 µM in the data set on Influenza A virus.

Turning to `Cc1nc(NCCc2cccc(N3CCCCC3)c2)c2cc[nH]c2n1`, the IC50 in the data set with Influenza A virus stood at 28.6 µM.

Regarding `Cc1nc2nccc-2c(NCCc2cccc(N(C)C)c2)[nH]1`, it took 55 µM to reach half-maximal inhibition with Influenza A virus (IC50). Compared with the last compound, the IC50 is about 1.9-fold higher.

In the case of `Cc1nc(NCc2cccc(N3CCCCC3)c2)c2cc[nH]c2n1`, the LD50 in data set [1] and in data set [2] was greater than 500 mg/kg in each case. Besides, the IC50 in the data set on Influenza B virus turned out to be 5.1 µM; in the data set with Influenza A virus, 2.3 µM.

`Cc1nc2nccc-2c(NCc2cccc(N(C)C)c2)[nH]1`: the IC50 was less than 100 µM with Influenza B virus and 18 µM in the data set on Influenza A virus.

In the case of `Cc1nc(NCCc2ccccc2)c2cc[nH]c2n1`, in the data set with Influenza A virus, it took 38.4 µM to reach half-maximal inhibition (IC50).

In the data set on Influenza A virus, `NC12CC3CC(CC(C3)C1)C2` [AMANTADINE] had an IC50 of 1.25 µM.

In the case of `Cc1nc(NCc2ccccc2)c2cc[nH]c2n1` [ROLODINE], the IC50 in the data set on Influenza A virus was greater than 100 µM.

The record behind these values is ChEMBL document CHEMBL1128988, “The antiinfluenza activity of pyrrolo[2,3-d]pyrimidines” (Bioorg Med Chem Lett, 1996).
